Test results from publication PMC4085797, “Synthetic Inositol Phosphate Analogs Reveal that PPIP5K2 Has a Surface-Mounted Substrate Capture Site that Is a Target for Drug Discovery” (Chemistry & Biology, 2014).
Residue numbers refer to the chain shown, from its start. “Also recorded” adds a separate entry of the source.

Assays:
[1] = molecular target: T1, PPIP5K2^KD (kinase domain of human PPIP5K2) (Homo sapiens, UniProt O43314); test: ATPase activity of PPIP5K2KD (Pi release); format: biochemical; conditions: for EC50: dose-response, key of Figure 4A, n = 3, read-out: EC50, stimulation of ATPase activities; for stimulation of ATPase activity (in words): wild-type enzyme
T1 construct: The kinase domain of human PPIP5K2 (PPIP5K2^KD; residues 1–366); made in house
T1 sequence (O43314 1-366): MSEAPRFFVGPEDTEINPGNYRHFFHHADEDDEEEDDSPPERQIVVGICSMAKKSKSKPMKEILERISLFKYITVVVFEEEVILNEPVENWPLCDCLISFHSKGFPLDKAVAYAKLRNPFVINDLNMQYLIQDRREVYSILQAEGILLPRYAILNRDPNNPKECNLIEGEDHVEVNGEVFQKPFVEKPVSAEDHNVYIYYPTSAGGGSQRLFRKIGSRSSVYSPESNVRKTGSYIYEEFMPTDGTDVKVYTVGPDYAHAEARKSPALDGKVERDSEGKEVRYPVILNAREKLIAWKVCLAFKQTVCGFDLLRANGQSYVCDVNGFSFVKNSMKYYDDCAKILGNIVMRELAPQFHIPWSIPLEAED
Description: (§1) The initial InsP6 concentration was either 500 nM, 70 nM, or 40 nM. Various concentrations of 2,5-di-O-Bn-InsP4 were present as indicated. Radioactivity was assessed using an in-line Flo1 detector. The ADP-driven dephosphorylation of 100 nM 1,5-[PP]2-InsP4 by PPIP5K2^KD was usually determined by a luminescence-based assay of ATP accumulation ([Riley et al., 2012; Weaver et al., 2013]). The IC50 values were determined using GraphPad Prism v6.02 (n ≥ 3). In some experiments, 1,5-[PP]2-[^3H]InsP4 dephosphorylation by PPIP5K2^KD was assayed in 50 μl buffer containing 50 mM KCl, 20 mM HEPES pH 7.0, 7 mM MgSO4, 5 mM ADP, 1 mM EDTA. Reactions were then quenched, neutralized, and analyzed with HPLC using a Partisphere SAX column ([Weaver et al., 2013]); 1 ml fractions were collected for liquid scintillation spectrometry. The ATPase activity of PPIP5K2^KD (10–270 μg/ml) was assayed from Pi release following incubation at 37°C for 120–180 min in 20 μl reaction mixtures containing 20 mM Tris/HCl, pH 7.5, 10 mM ATP, 100 mM KCl, 0.1 mM EDTA, and 13 mM MgCl2.

PPIP5K2^KD E192G mutant = molecular target: T2, PPIP5K2^KD E192G mutant (Homo sapiens, UniProt O43314, E192G); test: ATPase activity of E192G mutant; format: biochemical
T2 construct: The kinase domain of human PPIP5K2 (PPIP5K2^KD; residues 1–366); made in house
T2 sequence (O43314 1-366 E192G): T1 sequence (O43314 1-366) with E192G
Description: as §1
Protein Expression, Purification, Crystallization and Structure Determination […]
(§2) The structure was further manually rebuilt with COOT and refined with PHENIX and
(§3) REFMAC from the CCP4 package. Ligand topology and parameter files were prepared using
(§4) the PRODRG server. The molecular graphics representations were prepared with the program
(§5) PyMol (Schrödinger, LLC). The 2D ligand-protein interaction diagrams were generated by
(§6) LigPlot+. Atomic coordinates and structure factors have been deposited with the Protein Data
(§7) Bank with accession codes: 4NZM, 4NZN, 4NZO.
(§8) Mutants were generated using a site-directed mutagenesis kit (Stratagene). Pairs of complementary
primers were designed as shown below, with mutagenic primers underlined (only 5’ primers are
All mutated constructs were sequenced. Mutant proteins were expressed and purified as for wild-

[2] = molecular target: T1, PPIP5K2^KD (kinase domain of human PPIP5K2); test: Reverse-kinase assay: ADP-driven dephosphorylation of 1,5-[PP]2-InsP4, luminescence-based assay of ATP accumulation; format: biochemical; conditions: for IC50: 100 nM [PP]2-InsP4, key of Figure 4B, n = 3, read-out: IC50, inhibition of ADP-driven dephosphorylation of [PP]2-InsP4; for inhibition of [PP]2-InsP4 metabolism (in words): 100 nM 1,5-[PP]2-InsP4, Figure 4B
Description: The six compounds that were selected for the dose-response curves in the assays of ATP hydrolysis (Figure 4A) were now investigated for their effects upon diphosphoinositol polyphosphate metabolism by PPIP5K2^KD (Figure 4B). We used a high-throughput reverse-kinase assay that records ATP generated from ADP during the dephosphorylation of 100 nM 1,5-[PP]2-InsP4 ([Riley et al., 2012; Weaver et al., 2013]). Each of the tested analogs inhibited [PP]2-InsP4 metabolism by PPIP5K2^KD (Figure 4B). […] However, the inhibition by 2,5-di-O-Bn-InsP4 (10) was more unexpected because due to its bulk, and its less negative charge compared to physiological substrates, we predict it to be a poor ligand for the active site of the highly specific PPIP5K2^KD ([Wang et al., 2012]). Nevertheless, its ability to inhibit reverse-kinase activity was directly confirmed by high-performance liquid chromatography (HPLC) analysis of [PP]2-[^3H]InsP4 dephosphorylation (Figures S1A–S1C available online).
as §1

PPIP5K2^KD E192Q mutant = molecular target: T3, PPIP5K2^KD E192Q mutant (Homo sapiens, UniProt O43314, E192Q); test: ATPase activity of E192Q mutant; format: biochemical; conditions: 25 μM, Figure 7E
T3 construct: The kinase domain of human PPIP5K2 (PPIP5K2^KD; residues 1–366); made in house
T3 sequence (O43314 1-366 E192Q): T1 sequence (O43314 1-366) with E192Q
Description: as §1
Protein Expression, Purification, Crystallization and Structure Determination
Full-length human IP6K2, the kinase domain of human PPIP5K2 (PPIP5K2KD; residues 1-
366), and the N-terminally truncated domain used for the crystallography studies (residues
41-366) were all sub-cloned, expressed and purified as before (Wang et al., 2012; Weaver et
al., 2013). […]
as §2, §3, §4, §5, §6, §7, §8
primers were designed as shown below, with mutagenic primers underlined (only 5’ primers are […]

human IP6K2 = molecular target: T4, human IP6K2 (Homo sapiens, UniProt Q9UHH9); parameters: method as in Saiardi et al., 2000; conditions: ref Saiardi et al., 2000; cited from earlier work
T4 construct: Full-length human IP6K2, the kinase domain of human PPIP5K2; made in house
T4 sequence (Q9UHH9 1-426): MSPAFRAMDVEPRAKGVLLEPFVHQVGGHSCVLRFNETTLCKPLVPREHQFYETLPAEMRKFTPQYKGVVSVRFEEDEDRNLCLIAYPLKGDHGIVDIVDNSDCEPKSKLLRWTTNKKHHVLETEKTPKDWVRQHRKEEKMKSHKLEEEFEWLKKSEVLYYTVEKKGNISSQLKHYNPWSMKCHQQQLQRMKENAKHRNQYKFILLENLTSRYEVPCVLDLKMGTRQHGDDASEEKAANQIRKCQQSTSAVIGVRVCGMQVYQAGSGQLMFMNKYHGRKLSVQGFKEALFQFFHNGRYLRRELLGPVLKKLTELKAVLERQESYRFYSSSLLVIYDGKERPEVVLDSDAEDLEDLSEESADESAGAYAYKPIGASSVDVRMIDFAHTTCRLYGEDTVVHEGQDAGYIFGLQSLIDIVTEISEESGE

[3] = molecular target: T1, PPIP5K2^KD (kinase domain of human PPIP5K2); parameters: method as in Weaver et al., 2013; conditions: 25 μM; ref Weaver et al., 2013; cited from earlier work
human PPIP5K2^KD = molecular target: T5, human PPIP5K2^KD (Homo sapiens, UniProt O43314); parameters: method as in Weaver et al., 2013; conditions: ref Weaver et al., 2013; cited from earlier work
T5 construct: The kinase domain of human PPIP5K2 (PPIP5K2^KD; residues 1–366); made in house
T5 sequence (O43314 1-366): T1 sequence (O43314 1-366)

PPIP5K2^KD R213A mutant = molecular target: T6, PPIP5K2^KD R213A mutant (Homo sapiens, UniProt O43314, R213A); parameters: method as in Weaver et al., 2013; conditions: R213A mutation; ref Weaver et al., 2013; cited from earlier work
T6 construct: The kinase domain of human PPIP5K2 (PPIP5K2^KD; residues 1–366); made in house
T6 sequence (O43314 1-366 R213A): T1 sequence (O43314 1-366) with R213A

Row | SMILES | EC50 [1] [µM] | IC50 [2] [µM] | stimulation of ATPase activity (in words) ([1]; 25 μM, Figure 2) | further results
1 | O=P(O)(O)O[C@H]1[C@H](OP(=O)(O)O)[C@@H](OP(=O)(O)O)[C@H](OP(=O)(O)O)[C@@H](OP(=O)(O)O)[C@H]1OP(=O)(O)O [InsP6] | – | – | – | affinity of IP6K2 for InsP6 (human IP6K2): 430 nM; activation of substrate-stimulated ATPase activity [3]: 2- to 3 fold; affinity for InsP6 phosphorylation by PPIP5K2^KD (human PPIP5K2^KD): 0.39 µM; InsP6-stimulated ATPase activity (in words) (PPIP5K2^KD R213A mutant): abolished
2 | O=P(O)(O)O[C@@H]1[C@@H](OP(=O)(O)O)[C@H](OP(=O)(O)O)[C@H](OCc2ccccc2)[C@H](OP(=O)(O)O)[C@H]1OP(=O)(O)O [compound 7, 2-O-Bn-InsP5] | 2.2 | 0.44 | less effective than was 2-O-Bn-5-PA-InsP4; also recorded: roughly doubling the rate of ATP hydrolysis that is induced by InsP6 | less potent than 2-O-Bn-5-PA-InsP4 (2) at stimulating ATPase activity ([1]; from EC50 values, Figure 4A): 4 fold; inhibition of [PP]2-InsP4 metabolism (in words) [2]: equally efficient
3 | O=C(CP(=O)(O)O)O[C@@H]1[C@@H](OP(=O)(O)O)[C@H](OP(=O)(O)O)[C@H](O)[C@H](OP(=O)(O)O)[C@H]1OP(=O)(O)O [compound 3, 5-PA-InsP4] | – | – | dramatically reduced | –
4 | NCCO[C@H]1[C@@H](OP(=O)(O)O)[C@H](OP(=O)(O)O)[C@@H](OP(=O)(O)O)[C@H](OP(=O)(O)O)[C@H]1OP(=O)(O)O [compound 6, 2-O-(2-aminoethyl)-InsP5] | – | – | did not stimulate ATPase activity | –
5 | O=C(CP(=O)(O)O)O[C@@H]1[C@@H](OP(=O)(O)O)[C@H](OP(=O)(O)O)[C@H](OP(=O)(O)O)[C@H](OP(=O)(O)O)[C@H]1OP(=O)(O)O [compound 1, 5-O-α-phosphonoacetyl-myo-inositol 1,2,3,4,6-pentakisphosphate] | 1.2 | 0.14 | – | stimulation of ATP hydrolysis ([1]; 25 μM analog): 5 fold; inhibition of [PP]2-InsP4 metabolism (in words) [2]: most potent inhibitor
6 | O=C(O[C@H]1[C@@H](OP(=O)(O)O)[C@H](OP(=O)(O)O)[C@@H](OP(=O)(O)O)[C@H](OP(=O)(O)O)[C@H]1OP(=O)(O)O)c1ccccc1 [compound 4, 2-O-benzoyl-InsP5] | – | – | only a minimal reduction in ATPase-stimulating activity | –
7 | O=P(O)(O)O[C@@H]1[C@@H](OP(=O)(O)O)[C@H](OP(=O)(O)O)[C@H](O)[C@H](OP(=O)(O)O)[C@H]1OP(=O)(O)O [Ins(1,3,4,5,6)P5] | – | – | – | activation of substrate-stimulated ATPase activity [3]: 2- to 3 fold
8 | CCCC(=O)O[C@H]1[C@@H](OP(=O)(O)O)[C@H](OP(=O)(O)O)[C@@H](OP(=O)(O)O)[C@H](OP(=O)(O)O)[C@H]1OP(=O)(O)O [compound 5, 2-O-butanoyl-InsP5] | – | – | sharp reduction in activity | –

More lines, main results first:

Row | EC50 [1] [µM] | IC50 [2] [µM] | SMILES | stimulation of ATPase activity (in words) ([1]; 25 μM, Figure 2) | further results
9 | 2.6 | 0.5 | O=P(O)(O)O[C@@H]1[C@H](OCc2ccccc2)[C@H](OP(=O)(O)O)[C@@H](OP(=O)(O)O)[C@H](OP(=O)(O)OP(=O)(O)O)[C@H]1OP(=O)(O)O [compound 8, 2-O-Bn-5-PP-InsP4] | – | more effective at stimulating ATPase activity than 2-O-Bn-5-PA-IP4 (2) ([1]; 25 μM, Figure 2): 20%; rate of ligand-stimulated ATPase activity vs wild-type (in words) (PPIP5K2^KD E192G mutant): neither of these particular mutations altered the rate; rate of ligand-stimulated ATPase activity vs wild-type (in words) (PPIP5K2^KD E192Q mutant): neither of these particular mutations altered the rate
10 | 8.8 | 2.4 | O=P(O)(O)O[C@@H]1[C@@H](OP(=O)(O)OP(=O)(O)O)[C@H](OP(=O)(O)O)[C@@H](OP(=O)(O)O)[C@@H](O)[C@H]1OP(=O)(O)O [compound 9, 5-PP-InsP4] | about half the rate shown by 2-O-Bn-5-PP-InsP4 (8) | –
